Data on 21 molecules can be found in patent publication US20080045534A1, “Derivatives of 1,3-diamino benzene as potassium channel modulators” (Valeant Pharmaceuticals North America, priority 2006, published 2008).

Each structure is given as a SMILES string. Bounds are passed on as bounds.

The target in this test is T1, KCNQ 2/3 (Rattus norvegicus, UniProt O88943+O88944).
T1 construct: endogenous in cells; host or cells: PC-12 cells differentiated with NGF-7s
Kind of test: rubidium (Rb+) efflux assay in NGF-differentiated PC-12 cells. The format is cell-based. The settings on record: concentration for 50% of maximal Rb+ efflux, depolarization buffer (15 mM KCl), 10 min at room temperature. As to the method: Compounds of this invention formula were evaluated as KCNQ 2/3 modulators by measuring rhubidium release in the following assay.
Methods: PC-12 cells were grown at 37° C. and 5% CO2 in DMEM/F12 Medium supplemented with 10% horse serum, 5% fetal bovine serum, 2 mM glutamine, 100 U/ml penicillin, 100 U/ml streptomycin. They were plated in poly-D-lysine-coated 96-well cell culture microplates at a density of 40,000 cells/well and differentiated with 100 ng/ml NGF-7s for 2-5 days. For the assay, the medium was aspirated and the cells were washed once with 0.2 ml in wash buffer (25 mM Hepes, pH 7.4, 150 mM NaCl, 1 mM MgCl2, 0.8 mM NaH2PO4, 2 mM CaCl2). The cells were then loaded with 0.2 ml Rb^+ loading buffer (wash buffer plus 5.4 mM […], 5 mM glucose) and incubated at 37° C. for 2 h. Attached cells were quickly washed three times with buffer (same as Rb^+ loading buffer, but containing 5.4 mM KCl instead of RbCl) to remove extracellular Rb^+. Immediately following the wash, 0.2 ml of depolarization buffer (wash buffer plus 15 mM KCl) with or without compounds was added to the cells to activate efflux of potassium ion channels. After incubation for 10 min at room temperature, the supernatant was carefully removed and collected. Cells were lysed by the addition of 0.2 ml of lysis buffer (depolarization buffer plus 0.1% Triton X-100) and the cell lysates were also collected. If collected samples were not immediately analyzed for Rb^+ contents by atomic absorption spectroscopy (see below), they were stored at 4° C. without any negative effects on subsequent Rb^+ analysis.
The concentration of Rb^+ in the supernatants (Rb^+Sup) and cell lysates (Rb^+Lys) was quantified using an ICR8000 flame atomic absorption spectrometer (Aurora Biomed Inc., Vancouver, B.C.) under conditions defined by the manufacturer. One 0.05 ml samples were processed automatically from microtiter plates by dilution with an equal volume of Rb^+ sample analysis buffer and injection into an air-acetylene flame. The amount of Rb^+ in the sample was measured by absorption at 780 nm using a hollow cathode lamp as light source and a PMT detector. A calibration curve covering the range 0-5 mg/L Rb^+ in sample analysis buffer was generated with each set of plates. The percent Rb^+ efflux (F) was defined by
F=[Rb^+Sup/(Rb^+Sup+Rb^+Lys)]×100%.
The effect (E) of a compound was defined by:
where the Fc is the efflux in the presence of compound in depolarization buffer, Fb is the efflux in basal buffer, and Fs is the efflux in depolarization buffer, and. The effect (E) and compound concentration relationship was plotted to calculate an EC50 value, a compound's concentration for 50% of maximal Rb^+ efflux. Legend: A: EC50<50 nM; B: EC50=50 nM-200 nM; C: EC50=200 nM-1.0 μM; D: EC50=1.0 μM-10 μM; E: EC50>10 μM
Molecule `Cc1ccc(NCc2ccc(F)cc2)cc1NC(=O)CC(C)(C)C` yielded an EC50 of 200 to 1000 nM.
With `Cc1ccc(N2CCOCC2)c(C)c1NC(=O)CC(C)(C)C`, the EC50 lay within 1000 to 10000 nM.
`CCc1ccc(NCc2ccc(F)cc2)c(C)c1NC(=O)CC(C)(C)C`: the EC50 was in the range of 50 to 200 nM.
The molecule `COc1ccc(NCc2ccc(F)cc2)c(C)c1NC(=O)CCC1CCCC1` came in with an EC50 of 50 to 200 nM.
As for `Cc1c(N2CCOCC2)ccc(F)c1NC(=O)CC(C)(C)C`, the figure is 1000 to 10000 nM.
The value for `CCc1c(NCc2ccc(F)cc2)ccc(C)c1NC(=O)CC(C)(C)C` was 50 to 200 nM.
As for `Cc1ccc(NCc2ccc(F)cc2)c(C)c1NC(=O)CC(C)(C)C`, the figure is 50 to 200 nM; as for `Cc1ccc(NCc2ccc(F)cc2)c(Cl)c1NC(=O)CC(C)(C)C`, 50 to 200 nM; as for `CC(C)(C)CC(=O)Nc1ccc(F)c(N2CCOCC2)c1`, above 10000 nM.
With `Cc1ccc(NCc2ccc(C(F)(F)F)cc2)c(C)c1NC(=O)CC(C)(C)C`, the concentration giving a half-maximal response (EC50) is 200 to 1000 nM.
The value for `Cc1ccc(N2CCOCC2)cc1NC(=O)CC(C)(C)C` was above 10000 nM; that for `Cc1cc(Cl)c(N2CCOCC2)cc1NC(=O)CC(C)(C)C` was 1000 to 10000 nM; that for `COc1ccc(N2CCOCC2)c(C)c1NC(=O)CC(C)(C)C` was 1000 to 10000 nM.
The value for `Cc1ccc(NC(=O)CC(C)(C)C)cc1N1CCOCC1` was 1000 to 10000 nM; that for `Cc1c(NCc2ccc(F)cc2)cccc1NC(=O)CC(C)(C)C` was 50 to 200 nM; that for `Cc1ccc(NCc2ccc(C(F)(F)F)cc2)c(C)c1NC(=O)CCC1CCCC1` was below 50 nM.
As for `Cc1c(NC(=O)CC(C)(C)C)cccc1N1CCOCC1`, the EC50 was above 10000 nM.
As for `Cc1ccc(N2CCc3ccccc3C2)cc1NC(=O)CC(C)(C)C`, the figure is 200 to 1000 nM.
In the case of `CCc1ccc(NCc2ccc(F)cc2)c(CC)c1NC(=O)CCC1CCCC1`, the concentration for a half-maximal effect (EC50) is below 50 nM.
As for `CC(C)(C)CC(=O)Nc1cc(N2CCOCC2)c(F)cc1F`, the figure is 1000 to 10000 nM.
The value for `Cc1ccc(NCc2ccc(F)cc2)c(C)c1NC(=O)CCC1CCCC1` was below 50 nM.

What is called EC50 is the concentration needed to bring the measured effect to its halfway point. Low readings indicate a more potent agent, high ones a less potent agent.
